Data set [1] deals with L. infantum promastigote cells. Kind of data set: Mitochondrial membrane potential (Rhodamine 123, flow cytometry). Format: cell-based, Leishmania infantum. Here is the method:
To evaluate the effects of compounds on the mitochondrial membrane potential (ΔΨm) of Leishmania infantum, the cationic probe Rhodamine 123 (Rod 123) was used through quantitative flow cytometry analysis. […] After incubation, cells were centrifuged at 3000× g for 5 min, and supernatants discarded. […] Hydrogen peroxide (H2O2) at 1 μM was used as positive control, previously described in the literature as an inducer of mitochondrial potential loss. Cells were analyzed by flow cytometry on the FACSCalibur equipment (Becton & Dickinson, San José, CA, USA), with excitation at 488 nm and detection at 505/534 nm. Fifty thousand events per sample were acquired. Data were expressed as percentage of cells stained with Rhodamine 123 for each tested condition. Fluorescence variation was quantified by Variation Index (VI), calculated by the equation: VI = (MT − MC)/MC, where MT corresponds to the median fluorescence of treated cells and MC to the median of control cells (untreated).
In general terms: In flow cytometry, cells or beads pass a laser one at a time.

In data set [2] the test system is Leishmania infantum promastigote forms (MHOM/BR/BH46). Nature of the data set: In vitro leishmanicidal activity against promastigotes (Neubauer chamber counting). Type of data set: cell-based. The conditions noted are these: for IC50 / inhibition at 20 µM: Leishmania infantum; for IC50: 72 h, L. infantum promastigotes, linear regression; for inhibition at 20 µM: lowest concentration tested in the promastigote series (20–400 µM). The protocol:
For this study, the Leishmania infantum strain MHOM/BR/BH46 was used. It was maintained by cryopreservation in liquid nitrogen, using a preservation solution containing 10% dimethyl sulfoxide (DMSO) and 90% fetal bovine serum (FBS). For the experiments, the strain was reactivated and maintained in continuous culture in modified Schneider’s Drosophila medium, supplemented with 10% heat-inactivated fetal bovine serum (FBS), at a temperature of 26 °C, with subcultures performed every 72 h. The promastigote form was used for the in vitro assays, with growth observed and monitored through parasite counting using a Neubauer chamber (iNCYTO CChip DHC-N01, Cheonan-Si, Republic of Korea).
The in vitro leishmanicidal activity of compounds LT-70, LT-73, LT-75, LT-89, and amphotericin B was determined as described by Aliança et al., with adaptations. Promastigote forms of L. infantum (MHOM/BR/BH46) were maintained in Schneider’s medium supplemented with 10% fetal bovine serum (FBS), incubated at 26 °C. For experiments, parasites were subcultured and grown for 72 h until reaching stationary phase. Subsequently, they were adjusted to a concentration of 1 × 10^6 parasites/mL. Cultures were then incubated in the presence of the tested compounds (20–400 µM) and Amphotericin B was tested from 0.01 to 1.0 µM in preliminary range-finding assays, confirming an IC50 of 0.04 µM, both prepared in DMSO (final DMSO concentration < 1%), as well as a control containing only the diluent. Analyses were performed in technical triplicate and biological duplicate. Cultures were maintained at 26 °C for 72 h, with daily parasite counts performed using a Neubauer chamber. The median inhibitory concentration (IC50) was determined after 72 h by linear regression using SPSS 25.0 software for Mac. All assays were performed in 24-well flat-bottom plates (2 mL final volume per well), with parasite inoculum verified by Neubauer counting chamber. The compounds LT-73 and LT-75 were selected based on their best leishmanicidal performance and respective selectivity index (SI), calculated as the ratio between the cytotoxic concentration for 50% of host cells (CC50) and the IC50 obtained for parasites. […] IC50 and CC50 values were obtained by linear regression using […]. This method has been validated in our previous thiosemicarbazone publications. Each assay was conducted in triplicate across two independent biological experiments performed on separate days to ensure reproducibility and minimize batch effects. MTT was selected for consistency with the validated thiosemicarbazone protocol by Jacob et al., ensuring methodological coherence with prior data.

In data set [3] the test system is J774.A1 macrophages. On the set-up: method as in PMID 33590474. The following applies: highest concentration tested 75 µM, previously determined in collaboration with Jacob et al., ref [20]; cited from earlier work.
The test system of data set [4] is axenic amastigote forms of Leishmania amazonensis. Also on record: method as in ref [22] Oliveira et al. The following applies: ref [22] Oliveira et al.; cited from earlier work.
Data set [5] has as its system Leishmania infantum. Also on record: method as in PMID 35861942, PMID 14982775. The following applies: against Leishmania infantum, similar in vitro conditions; ref [25],[29]; cited from earlier work.

Consider 5 compounds from PMC12656565, “In Vitro and Ultrastructural Evaluation of the Cytotoxic and Antileishmanial Activities of Thiosemicarbazone Compounds Against Promastigotes and Axenic Amastigotes of Leishmania infantum” (Tropical Medicine and Infectious Disease, 2025).

Structures are written as SMILES. Peptide text beside a SMILES is read from it. * marks the point of attachment. Cbz = O=C(OCc1ccccc1)*

On to `OO` [Hydrogen Peroxide (H2O2), Hydrogen peroxide, reference compound], for which, in data set [1] (positive control, H2O2 at 1 μM), the “Mean (Rho 123 fluorescence)” value is 581 ± 35 and the “Variation (Variation Index, VI = (MT − MC)/MC)” value is recorded as −0.18 ± 0.08. Further, in data set [1] (range over the tested concentrations (1× and 2× IC50; H2O2 control)), the “Variability Index (VI), range” value is recorded as −0.018 to −0.73.

In the case of `N#Cc1ccc2[nH]cc(/C=N/NC(=S)Nc3ccccc3)c2c1` [LT-70], in data set [2], the IC50 (as a rule, the point on the concentration scale where inhibition reaches its midpoint) is less than 20 µM and the inhibition – broadly, the change of the read-out against control, counted positive when it falls – at 20 µM stood at 100%. In addition, in data set [3], the CC50 was 64 ± 5 µM.

As to `C=CCNC(=S)N/N=C\c1c[nH]c2c(C)cccc12` [LT-89], the “SI (CC50/IC50)” value in data set [2] (CC50 J774 macrophages / IC50 promastigotes) is given as 4.3. Also, in data set [2], the IC50 is less than 20 µM and the inhibition at 20 µM was determined as 100%. In addition, in data set [3], the CC50 was 60 ± 4 µM.

Turning to `CC(C)[C@H](NC(=O)OCc1ccccc1)C(=O)N[C@H](C=O)Cc1ccccc1` [MDL28170] (Cbz-Val-Phe-aldehyde), the IC50 in data set [4] was 13.5 µM.

In the case of `CCCCCCCCCCCCCCCCOP(=O)([O-])OCC[N+](C)(C)C` [miltefosine], in data set [5], the 50% inhibitory concentration (IC50) was 8 to 12 µM.
